Laboratory results reported in patent US20140107100A1, “Benzoxazepines as Inhibitors of PI3K/mTOR and Methods of Their Use and Manufacture” (EXELIXIS, INC., priority 2010, published 2014).

Target: mTOR/GbL/Raptor (mTORC1) (Homo sapiens, UniProt P42345)
Assay: mTOR/GbL/Raptor (mTORC1) ELISA assay, phosphorylation of 4E-BP1
Assay type: biochemical
Conditions: 0.2 nM mTORC1, 40 uM ATP, 50 nM NHis-tagged 4E-BP1, 120 minutes; read-out: IC50 in this assay (mTORC1 ELISA)
Method in brief: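 Phospho-4E-BP1 was quantified by luminescent ELISA (anti-phospho-4E-BP1 IgG, HRP-tagged secondary) after capture of the His-tagged substrate on Ni-chelate plates.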

| Compound | IC50 [nM] |
| --- | --- |
| Cc1cc(-c2cnc3sc(N)nc3c2)cc2c1OCCN(c1nc(N)nc(C)c1CC1CC1)C2 [Compound 46, 6-{4-[2-amino-5-(cyclopropylmethyl)-6-methylpyrimidin-4-yl]-9-methyl-2,3,4,5-tetrahydro-1,4-benzoxazepin-7-yl}[1,3]thiazolo[5,4-b]pyridin-2-amine] | ≤ 100 |
| COCCc1nc(C)c(C(C)C)c(N2CCOc3c(C)cc(-c4cnc5sc(N)nc5c4)cc3C2)n1 [Compound 155, 6-(9-methyl-4-{6-methyl-5-(1-methylethyl)-2-[2-(methyloxy)ethyl]pyrimidin-4-yl}-2,3,4,5-tetrahydro-1,4-benzoxazepin-7-yl)[1,3]thiazolo[5,4-b]pyridin-2-amine] | ≤ 100 |
| COCCc1c(C)nc(CN2CCCC2)nc1N1CCOc2c(C)cc(-c3cnc4sc(N)nc4c3)cc2C1 [Compound 127, 6-(9-methyl-4-{6-methyl-5-[2-(methyloxy)ethyl]-2-(pyrrolidin-1-ylmethyl)pyrimidin-4-yl}-2,3,4,5-tetrahydro-1,4-benzoxazepin-7-yl)[1,3]thiazolo[5,4-b]pyridin-2-amine] | ≤ 100 |
| CCc1c(C)nc(N)nc1N1CCOc2c(C)cc(-c3cnc4sc(N)nc4c3)cc2C1 [Compound 8, 6-[4-(2-amino-5-ethyl-6-methylpyrimidin-4-yl)-9-methyl-2,3,4,5-tetrahydro-1,4-benzoxazepin-7-yl][1,3]thiazolo[5,4-b]pyridin-2-amine] | ≤ 100 |
| Cc1cc(-c2cnc3sc(N)nc3c2)cc2c1OCCN(c1ncnc(C)c1C(C)C)C2 [Compound 87, 6-{9-methyl-4-[6-methyl-5-(1-methylethyl)pyrimidin-4-yl]-2,3,4,5-tetrahydro-1,4-benzoxazepin-7-yl}[1,3]thiazolo[5,4-b]pyridin-2-amine] | ≤ 100 |
| Cc1cc(-c2cnc3sc(N)nc3c2)cc2c1OCCN(c1ncc(C#N)c(N)n1)C2 [Compound 26, 4-amino-2-[7-(2-amino[1,3]thiazolo[5,4-b]pyridin-6-yl)-9-methyl-2,3-dihydro-1,4-benzoxazepin-4(5H)-yl]pyrimidine-5-carbonitrile] | 100 to 500 |
| COc1ncc(-c2cc(C)c3c(c2)CN(c2nc(N)nc(C)c2C(C)C)CCO3)cc1NS(C)(=O)=O [Compound 21, N-[5-{4-[2-amino-6-methyl-5-(1-methylethyl)pyrimidin-4-yl]-9-methyl-2,3,4,5-tetrahydro-1,4-benzoxazepin-7-yl}-2-(methyloxy)pyridin-3-yl]methanesulfonamide] | ≤ 100 |
| Cc1cnccc1N1CCOc2c(C)cc(-c3cnc4sc(N)nc4c3)cc2C1 [Compound 48, 6-[9-methyl-4-(3-methylpyridin-4-yl)-2,3,4,5-tetrahydro-1,4-benzoxazepin-7-yl][1,3]thiazolo[5,4-b]pyridin-2-amine] | 100 to 500 |
| CCNC(=O)c1nc(C)c(C(C)C)c(N2CCOc3c(C)cc(-c4cnc5sc(N)nc5c4)cc3C2)n1 [Compound 113, 4-[7-(2-amino[1,3]thiazolo[5,4-b]pyridin-6-yl)-9-methyl-2,3-dihydro-1,4-benzoxazepin-4(5H)-yl]-N-ethyl-6-methyl-5-(1-methylethyl)pyrimidine-2-carboxamide] | ≤ 100 |
| Cc1cc(-c2cnc3sc(N)nc3c2)cc2c1OCCN(c1ncncc1C(C)C)C2 [Compound 116, 6-{9-methyl-4-[5-(1-methylethyl)pyrimidin-4-yl]-2,3,4,5-tetrahydro-1,4-benzoxazepin-7-yl}[1,3]thiazolo[5,4-b]pyridin-2-amine] | ≤ 100 |
| Cc1cc(-c2cnc3sc(N)nc3c2)cc2c1OCCN(c1ncc(C(F)(F)F)c(N)n1)C2 [Compound 13, 6-{4-[4-amino-5-(trifluoromethyl)pyrimidin-2-yl]-9-methyl-2,3,4,5-tetrahydro-1,4-benzoxazepin-7-yl}[1,3]thiazolo[5,4-b]pyridin-2-amine] | 100 to 500 |
